For experiment [1], the system named is calcium-induced arrythmias. The experiment is described as follows: Calcium-induced arrhythmia model in mice. Format: in vivo. The following applies: maximal effect; i.v.; time until 2nd degree AV-block during CaCl2 infusion relative to vehicle treated mice. As for the experimental part:
The antiarrhythmic effects of compounds of this invention were tested in an in vivo model of calcium-induced arrythmias according to the model of Lynch et al.^[37]. […]. Commercial solutions of hypnorm and midazolam were diluted 1:1 in distilled water and one part diluted Hypnorm® is mixed with one part diluted midazolam.
The anaesthesia was induced by s.c. administration in a dose of 0.05-0.075 μl/10 gram mouse. An i.v cannula was inserted into the tail vein. The lead II ECG signal was recorded continuously by positioning of a stainless steel ECG electrodes on the right forelimb and on the left hind limb. The ground electrode was placed on the right hind limb. The signal was amplified (x 5.000-10.000) and filtered (0.1-150 Hz) via a Hugo Sachs Electronic model 689 ECG module. The analogue signal was digitised via a 12 bit data acquisition board (Data Translation model DT321) and sampled at 1000 Hz using the Notocord HEM 3.1 software for Windows NT. After a 10-min equilibration period, the test sample of drug was injected into the tail vein. Mice pre-treated with vehicle were tested as a measure of the control level in untreated animals. The injection volume was 100 μl in all experiments. Infusion of CaCl2 (30 mg/ml, 0.1 ml/min≈100 mg/kg/min (calciumchlorid-2-hydrat, Riedel-de Häen, Germany)) was started 3 min after i.v. administration of drug or vehicle. The time lag to onset of 2nd degree AV-block was determined as the time from the start of CaCl2 infusion until the first arrhythmic event occured. An event of 2nd degree AV-block was defined as intermittent failure of the AV conduction characterised by a P-wave without the concomitant QRS complex.
Responses were expressed relative to the time until 2nd degree AV-block occurred in vehicle treated mice.

Experiment [2] has as its system phospho-inositol turnover in neonatal rat cardiomyocytes. The experiment is described as follows: Phosphoinositol turnover in rat primary cardiomyocytes. In kind it is cell-based. Conditions: for EC50: Rattus norvegicus, Cardiomyocyte. As for the experimental part: Neonatal Wistar rats (1-2 days old) are used. Hank's calcium- and magnesium-free balanced salt solution, buffered with 10 mM HEPES is used for washing during cell separation procedures. The hearts are excised, the ventricles isolated and the tissue cut into small pieces. The myocardial cells are isolated by stepwise enzymatic degradation with collagenase 0.05%, as described by^[35]. After repeated rounds of centrifugation and washing, the precipitated cells are resuspended in culture medium M199 with Earle's salt, 10% NCS, penicillin (75 U/mL), and streptomycin (75 U/mL) and pre-plated in a Petri dish for 90 minutes. The non-adherent cells are collected in the culture medium and plated in multidishes at 2.5*10^5 cells/well. The cultures are kept in a water-saturated CO2-incubator at 37° C. The cardiomyocyte cultures are used for analyses after 6-7 days.
Cardiomyocyte cultures are incubated for 48 hours in culture medium containing […] myo-[2-^3H]inositol to label the inositol phospholipids. On the day of analysis the medium is replaced by a buffer solution containing lithium and incubated at 37° C., as described by Meier et al.^[36]. After at least five minutes this buffer is replaced by the same volume of buffer containing test compound and incubated for exactly 20 minutes. The reaction is stopped by rapid replacement of the buffer by ice cold 4% v/v perchloric acid (PCA) and incubation for at least 20 minutes at 0° C. The PCA-extract is neutralised and the [^3H]inositol phosphates are separated by anion-exchange chromatography using Amprep™ columns containing 100 mg SAX Quaternary amine. The [^3H]inositol mono-phosphates are eluted and radioactivity in the fraction measured by liquid scintillation counting.
Before adding test substances to the cultures, the cells are depleted of glucose and oxygen by incubating them in a N2-atmosphere in glucose-free lithium-buffer for 10 minutes at 37° C. Control cells are incubated likewise only at normal atmospheric conditions and in a buffer containing glucose.

Experiment [3] relates to guinea pig papillary muscle. Conditions: 1 μM; normoxic conditions; cited from earlier work.
The subject of experiment [4] is membranes from rabbit heart. Conditions: read-out: value given for AAP10 by Dhein et al.; cited from earlier work.
Another experiment deals with CHO cells. The experiment in a line: In situ binding of [125I]AAP10 on intact CHO cells. Conditions: overnight at 4° C. As for the experimental part:
CHO cells are seeded in 24-multi well dishes in a density of 7,900 cells/cm^2 (˜15,000 cells/well) and grown for 3 Days In Vitro (DIV) in 1 ml/well of F-12K Nutrient Mixture supplemented with […] (FCS) and 1000 units penicillin/1000 μg streptomycin (pen/strep) in an atmosphere of 5% CO2 and 100% humidity at 37° C. The cell density has at that time increased to 295,000 cells/cm^2 (152 pgprot/cell˜85 μgprot/well).
On the day of analysis cells are removed from the incubator and each well is washed twice with, depending on the experiment, either 2 ml pre-warmed (37° C.) or ice-cold (0° C.) D-PBS to remove serum. It is important to keep the period to a minimum during which cells are left without physiological solutions to avoid that they dry out during washing procedures. The cold washed cells are used directly for binding assays while the warm washed cells are used for experiments with glucose and oxygen deprivation.
Cells are incubated for 10 min in an N2-atmosphere in glucose free D-PBS (pH 7.2) pre-equilibrated with N2 for at least 10 min at 37° C. Control cells are incubated likewise for 10 min at 37° C., only, at normal atmospheric conditions and in D-PBS containing glucose (6 mM). […]
0.25 ml of 0.5% Triton-X-100 (v/v) is added to each well and cells left for at least 1 h to solubilize. […] The vials are counted in a γ-counter.

[ ]: non-standard residue; d: D form. The star is where a group is joined. Hyp = O=C(O)[C@@H]1C[C@@H](O)CN1; dHyp = O=C(O)[C@H]1C[C@H](O)CN1; T4C = not defined here; Acm = CC(=O)NC*; Sar = CNCC(=O)O

On to H-Gly-Asn-Tyr-NH2 [Compound 41], for which the In vivo activity entry in experiment [1] is “++ (30-50% increase in time until arrhythmia)”.
On the same count and under the same terms, next, “H-Gly-Ala-Gly-Asn-Tyr-NH2 (H-GAGNY-NH2) [Compound 39]”: “+++ (>60% increase in time until arrhythmia)”; “3-(4-hydroxyphenyl)propionyl-Pro-Hyp-Gly-Ala-Gly-OH [Compound CE3, reference compound]”: “++ (30-50% increase in time until arrhythmia)”.
On the same count and under the same terms, the entry for H-GAG[dHyp][dP]Y-NH2 [Compound 10] is “+++ (>60% increase in time until arrhythmia)”; for “cyclo(-Gly-Ala-Gly-Hyp-Pro-Tyr-Gln-) (cyclo(GAG[Hyp]PYQ); SMILES C[C@@H]1NC(=O)CNC(=O)[C@H](CCC(N)=O)NC(=O)[C@H](Cc2ccc(O)cc2)NC(=O)[C@@H]2CCCN2C(=O)[C@@H]2C[C@@H](O)CN2C(=O)CNC1=O) [Compound 35]” it is “++ (30-50% increase in time until arrhythmia)”.
The same measure, in the same setting: next, “cyclo(-Gly-Ala-Gly-Hyp-Pro-Tyr-Asn-) (cyclo(GAG[Hyp]PYN)) [Compound 36]”: “+++ (>60% increase in time until arrhythmia)”; H-GAG[dHyp]AY-NH2 [Compound 9]: “+ (15-29% increase in time until arrhythmia)”; “H-Gly-Ala-Gly-T4C-Pro-Tyr-NH2 (H-GAG[T4C]PY-NH2; reading uncertain; also: printed as H-Gly-Ala-Gly-T4C-Pro-Tyr-NH2) [Compound 12]”: “++ (30-50% increase in time until arrhythmia)”.
Turning to “H-C(Acm)GAG[Hyp]PYC(Acm)-NH2 [Compound 16]”, the In vivo activity entry in experiment [1] is “+ (15-29% increase in time until arrhythmia)”.
On the same count and under the same terms, the entry for “H-Gly-Ala-Gly-PC-Pro-Tyr-NH2 (GAGPY; PC residue; C-terminal amide; Description of Artificial Sequence: Synthetic antiarrythmic peptide; PC between positions 3 and 4) [Compound 14]” is “+ (15-29% increase in time until arrhythmia)”.
A word on the EC50: it is the concentration at which the effect is half-maximal. Read a low EC50 as higher potency in that assay. `NC[C@H](O)c1ccc(O)c(O)c1` [Noradrenaline]: the EC50 in experiment [2] (atmosphere of N2 and depleted of glucose) worked out at 0.303 µM; in experiment [2] (normal atmospheric and nutritional conditions), 0.203 µM.
In the case of H-GAG[Hyp]PY-NH2 [Compound CE2], the “EC50 relative to the EC50 of Compound 2” value in experiment [2] (during normoxia) came out at 200 fold; in experiment [2] (metabolic stress induced by anoxia and glucose deprivation), 10 fold. Moreover, in experiment [1], the In vivo activity result is recorded as “+++ (>60% increase in time until arrhythmia)”. The decrease of stimulus-response-interval entry in experiment [3] is on record as “about 10%”. Moreover, the IC50 in experiment [4] is 0.0002 µM.
“H-GP[Hyp]GAG-OH [Compound CE1, reference compound]”: the In vivo activity entry in experiment [1] was “++ (30-50% increase in time until arrhythmia)”.
Same read-out and setting: the entry for “H-Gly-Ala-Sar-Hyp-Pro-Tyr-NH2 (H-GA[Sar][Hyp]PY-NH2; SMILES C[C@H](NC(=O)CN)C(=O)N(C)CC(=O)N1C[C@H](O)C[C@H]1C(=O)N1CCC[C@H]1C(=O)N[C@@H](Cc1ccc(O)cc1)C(N)=O) [Compound 30]” is “++ (30-50% increase in time until arrhythmia)”; for “H-Hyp-Pro-Tyr-Asn-Gly-Ala-Gly-NH2 (H-[Hyp]PYNGAG-NH2; SMILES C[C@H](NC(=O)CNC(=O)[C@H](CC(N)=O)NC(=O)[C@H](Cc1ccc(O)cc1)NC(=O)[C@@H]1CCCN1C(=O)[C@@H]1C[C@@H](O)CN1)C(=O)NCC(N)=O) [Compound 28]” it is “(+) (≦15% increase in time until arrythmia)”.
As for “Ac-D-Tyr(3,5-di-I)-D-Pro-D-Hyp-Gly-D-Ala-Gly-NH2 [Compound 24]”, the IC50 in the experiment with CHO cells worked out at 0.065 µM.
As to H-GAG[dHyp]PY-NH2 [Compound 5], the In vivo activity result in experiment [1] was “++ (30-50% increase in time until arrhythmia)”.
On the same count and under the same terms, next, “Ac-Tyr-Pro-4Hyp-Gly-Ala-Gly-OH (Ac-YP[Hyp]GAG-OH; SMILES CC(=O)N[C@@H](Cc1ccc(O)cc1)C(=O)N1CCC[C@H]1C(=O)N1C[C@H](O)C[C@H]1C(=O)NCC(=O)N[C@@H](C)C(=O)NCC(=O)O) [Compound 1]”: “+ (15-29% increase in time until arrhythmia)”; “Cyclo(Tyr-Pro-4Hyp-Gly-Ala-Gly-Asn) [Compound 3]”: “+++ (>60% increase in time until arrhythmia)”; H-[Sar]A[Sar][Hyp]PY-NH2 [Compound 29]: “+ (15-29% increase in time until arrhythmia)”.
“ASAL(mono-iodo)-Pro-Hyp-Gly-Ala-Gly-NH2 [Compound 32]”: in the experiment on CHO cells, the IC50 came out at 0.0005 µM. Moreover, in experiment [1], the In vivo activity entry is given as “+++ (>60% increase in time until arrhythmia)”.
For the compound Ac-Gly-Asn-Tyr-NH2 [Compound 40], the In vivo activity result in experiment [1] is “++ (30-50% increase in time until arrhythmia)”.

Values taken from US7250397B2, “Antiarrhythmic peptides” (Zealand Pharma A/S, priority 2000, dated 2007).
